This is an account of results in patent US20240247015A1, “PHOSPHORUS DERIVATIVES AS NOVEL SOS1 INHIBITORS” (BAYER AKTIENGESELLSCHAFT, priority 2021, published 2024).

As usually defined, the IC50 is the point on the concentration scale where inhibition reaches its midpoint.

Sequence of interaction of human SOS1 (SOS1) with human K-RasG12C (Q07889 564-1049 limits assumed): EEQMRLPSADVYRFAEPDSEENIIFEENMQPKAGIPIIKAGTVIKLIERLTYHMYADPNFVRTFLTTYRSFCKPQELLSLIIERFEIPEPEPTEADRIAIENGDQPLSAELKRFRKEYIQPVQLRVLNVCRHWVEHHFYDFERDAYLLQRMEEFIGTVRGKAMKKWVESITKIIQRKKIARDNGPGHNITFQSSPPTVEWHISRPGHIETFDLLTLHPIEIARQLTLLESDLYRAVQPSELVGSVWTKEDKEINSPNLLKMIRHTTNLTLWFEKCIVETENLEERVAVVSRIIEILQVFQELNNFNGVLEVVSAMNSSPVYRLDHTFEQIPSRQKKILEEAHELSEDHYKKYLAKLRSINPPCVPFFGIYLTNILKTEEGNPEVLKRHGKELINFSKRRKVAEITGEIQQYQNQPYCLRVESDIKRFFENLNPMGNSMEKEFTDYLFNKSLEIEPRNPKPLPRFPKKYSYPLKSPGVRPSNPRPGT

This test addresses interaction of human SOS1 (SOS1) with human K-RasG12C (Homo sapiens (Human), UniProt Q07889). The test can be described thus: Biochemical assay: hK-RasG12C interaction assay with hSOS1 (HTRF). The test is classed as binding. As to conditions: GST-hK-RasG12C with His-hSOS1, 60 min incubation at 20° C., mean, read-out: K-RasG12C - SOS interaction assay IC50 (mean). Here is the method:
Biochemical Assay: hK-RasG12C Interaction Assay with hSOS1 This assay quantifies the equilibrium interaction of human SOS1 (SOS1) with human K-Ras^G12^C (K-RasG12C). Detection of the interaction is achieved by measuring homogenous time-resolved fluorescence resonance energy transfer (HTRF) from antiGST-Europium (FRET donor) bound to GST-K-RasG12C to anti-6His-XL665 bound to His-tagged hSOS1 (FRET-acceptor). The assay buffer containes 5 mM HEPES pH 7.4 (Applichem), 150 mM NaCl (Sigma), […] (Promega), 1 mM DTT (Thermofisher), 0.05% BSA Fraction V, pH 7.0, (ICN Biomedicals), 0.0025% (v/v) Igepal (Sigma) and 100 mM KF (FLUKA). The expression and purification of N-terminally GST-tagged human K-RasG12C (termed GST-hK-RasG12C) and N-terminally His-tagged human SOS1 (termed His10-hSOS1) is described in WO 2019/201848, page 220 line 12-34 and page 222, line 13-25 (expression) and page 222, line 26 to page 223, line 17 (purification). Concentrations of protein batches used are optimized to be within the linear range of the HTRF signal. A Ras working solution is prepared in assay buffer containing typically 10 nM GST-hK-RasG12C and 2 nM antiGST-Eu(K) (Cisbio, France). A SOS1 working solution is prepared in assay buffer containing typically 20 nM His-hSOS1 and 10 nM anti-6His-XL665 (Cisbio, France). An inhibitor control solution is prepared in assay buffer containing nM anti-6His-XL665 without SOS1. Fifty nl of a 100-fold concentrated solution of the test compound in DMSO are transferred into a black microtiter test plate (384 or 1536, Greiner Bio-One, Germany). For this, either a Hummingbird liquid handler (Digilab, MA, USA) or an Echo acoustic system (Labcyte, CA, USA) is used. All steps of the assay are performed at 20° C. A volume of 2.5 μl of the Ras working solution is added to all wells of the test plate using a Multidrop dispenser (Thermo Labsystems). After 2 min preincubation, 2.5 μl of the SOS1 working solution are added to all wells except for those wells at the side of the test plate that are subsequently filled with 2.5 μl of the inhibitor control solution. After 60 min incubation the fluorescence is measured with a Pherastar (BMG, Germany) using the HTRF module (excitation 337 nm, emission 1: 620 nm, emission 2: 665 nm). The ratiometric data (emission 2 divided by emission 1) are normalized using the controls (DMSO=0% inhibition, inhibition control wells with inhibitor control solution=100% inhibition). Compounds are tested in duplicates at up to 11 concentrations (for 20 μM, 5,7 μM, 1,6 μM, 0.47 μM, 0.13 μM, 38 nM, 11 nM, 3.1 nM, 0.89 nM, 0.25 nM and 0.073 nM). IC50 values are calculated by 4-Parameter fitting using a commercial software package (Genedata Screener, Switzerland).
As for `Cc1nc(N[C@H](C)c2cccc(C(F)(F)F)c2C)c2cc(P3(=O)CCN(C(=O)[C@@H](C)O)CC3)ncc2n1` [Example 166, 1-[(2R)-2-hydroxypropanoyl]-4-[2-methyl-4-{{(1R)-1-[2-methyl-3-(trifluoromethyl)phenyl]ethyl}amino)pyrido[3,4-d]pyrimidin-6-yl]-1,4lambda^5-azaphosphinan-4-one], the IC50 is 4.83 nM. `Cc1nc(N[C@H](C)c2cccc(C(F)F)c2F)c2cc(P3(=O)CCNCC3)ncc2n1` [Example 9, 4-[4-({(1R)-1-[3-(difluoromethyl)-2-fluorophenyl]ethyl}amino)-2-methylpyrido[3,4-d]pyrimidin-6-yl]-1,4lambda^5-azaphosphinan-4-one]: the IC50 is 22.3 nM.

Take `CCOC(=O)N1CCP(=O)(c2cc3c(N[C@H](C)c4cccc(C(F)(F)F)c4C)nc(C)nc3cn2)CC1` [Example 189]: the IC50 is 20.6 nM. With `CO[C@@H](C)C(=O)N1CCP(=O)(c2cc3c(N[C@H](C)c4cccc(C(F)F)c4F)nc(C)nc3cn2)CC1` [Example 149, 4-[4-{{(1R)-1-[3-(difluoromethyl)-2-fluorophenyl]ethyl}amino)-2-methylpyrido[3,4-d]pyrimidin-6-yl]-1-[(2S)-2-methoxypropanoyl]-1,4lambda^5-azaphosphinan-4-one], the IC50 came out at 18 nM. In the case of `[2H]C([2H])([2H])[C@]([2H])(Nc1nc(C)nc2cnc(P3(=O)CCN(C(C)=O)CC3)cc12)c1cccc(C(F)(F)F)c1C` [Example 138, 1-acetyl-4-(2-methyl-4-{[(1S)-1-[2-methyl-3-(trifluoromethyl)phenyl](^2H4)ethyl]amino}pyrido[3,4-d]pyrimidin-6-yl)-1,4lambda^5-azaphosphinan-4-one] it was 6.01 nM; in that of `Cc1nc(N[C@H](C)c2cccc(C(F)(F)C(C)(C)O)c2F)c2cc(P(C)(C)=O)ncc2n1` [Example 3, 1-{3-[(1R)-1-{[6-(dimethylphosphoryl)-2-methylpyrido[3,4-d]pyrimidin-4-yl]amino}ethyl]-2-fluorophenyl}-1,1-difluoro-2-methylpropan-2-ol], 19.1 nM. For `CC(=O)N1CCP(=O)(c2cc3c(N[C@H](C)c4cccc(C(F)(F)F)c4C)nc(C)nc3c(C)n2)CC1` [Example 146, (R)-1-(4-(2,8-dimethyl-4-((1-(2-methyl-3-(trifluoromethyl)phenyl)ethyl)amino)pyrido[3,4-d]pyrimidin-6-yl)-4-oxido-1,4-azaphosphinan-1-yl)ethan-1-one], the IC50 was found to be 81 nM. In the case of `CCP(=O)(CC)c1cnc2nc(C)nc(N[C@H](C)c3cccc(C(F)(F)C(C)(C)O)c3F)c2c1` [Example 103, 1-{3-[(1R)-1-{[6-(diethylphosphoryl)-2-methylpyrido[2,3-d]pyrimidin-4-yl]amino}ethyl]-2-fluorophenyl}-1,1-difluoro-2-methylpropan-2-ol], the IC50 is 14.2 nM.

Take `COc1nc2nc(C)nc(N[C@H](C)c3cccc(C(F)(F)F)c3C)c2cc1P1(=O)CCN(C(C)=O)CC1` [Example 144, 1-acetyl-4-[7-methoxy-2-methyl-4-({(1R)-1-[2-methyl-3-(trifluoromethyl)phenyl]ethyl}amino)pyrido[2,3-d]pyrimidin-6-yl]-1,4lambda^5-azaphosphinan-4-one]: the IC50 turned out to be 1.97 nM. Turning to `CC(=O)N1CCP(=O)(c2cc3c(N[C@H](C)c4cccc(C(C)(F)F)c4)nc(C)nc3cn2)CC1` [Example 141, 1-acetyl-4-[4-({(1R)-1-[3-(1,1-difluoroethyl)phenyl]ethyl}amino)-2-methylpyrido[3,4-d]pyrimidin-6-yl]-1,4lambda^5-azaphosphinan-4-one], the IC50 was determined as 12.8 nM. For the compound `CC(=O)N1CCP(=O)(c2cc3c(N[C@H](C)c4cccc(C(F)(F)F)c4Cl)nc(C)nc3cn2)CC1` [Example 191], the IC50 amounted to 8.09 nM. On to `Cc1nc(N[C@H](C)c2cccc(C(F)F)c2F)c2cc(P3(=O)CCN(C(N)=O)CC3)ncc2n1` [Example 183], for which the IC50 came to 8.38 nM. In the case of `Cc1nc(N[C@H](C)c2cccc(C(F)(F)C(=O)C(C)(C)C)c2F)c2cc(P(C)(C)=O)ncc2n1` [Example 110, 1-{3-[(1R)-1-{[6-(dimethylphosphoryl)-2-methylpyrido[3,4-d]pyrimidin-4-yl]amino}ethyl]-2-fluorophenyl}-1,1-difluoro-3,3-dimethylbutan-2-one], the IC50 was 56.8 nM. To `Cc1nc(N[C@H](C)c2cccc(C(F)(F)F)c2C)c2cc(P(C)(C)=O)ncc2n1` [Example 1, 6-(dimethylphosphoryl)-2-methyl-N-{(1R)-1-[2-methyl-3-(trifluoromethyl)phenyl]ethyl}pyrido[3,4-d]pyrimidin-4-amine] belongs 20.6 nM; to `COCc1nc(P2(=O)CCN(C(C)=O)CC2)cc2c(N[C@H](C)c3cccc(C(F)(F)F)c3C)nc(C)nc12` [Example 37, 1-acetyl-4-[8-(methoxymethyl)-2-methyl-4-({(1R)-1-[2-methyl-3-(trifluoromethyl)phenyl]ethyl}amino)pyrido[3,4-d]pyrimidin-6-yl]-1,4lambda^5-azaphosphinan-4-one], 9.69 nM; to `Cc1nc(N[C@H](C)c2cccc(C(F)(F)F)c2C)c2cc(P3(=O)CCN(C(=O)C4(C#N)CC4)CC3)ncc2n1` [Example 167, 1-{4-[2-methyl-4-{{(1R)-1-[2-methyl-3-(trifluoromethyl)phenyl]ethyl}amino)pyrido[3,4-d]pyrimidin-6-yl]-4-oxo-1,4lambda^5-azaphosphinane-1-carbonyl}cyclopropane-1-carbonitrile], 12.7 nM. On to `Cc1nc(N[C@H](C)c2cccc(C(F)(F)F)c2Cl)c2cc(P3(=O)CCN(C(=O)C(F)F)CC3)ncc2n1` [Example 204], for which the IC50 turned out to be 5.96 nM. With `Cc1nc(N[C@H](C)c2cccc(C(F)(F)C(C)(C)O)c2F)c2cc(P3(=O)CCN(C(=O)C4CC4)CC3)ncc2n1` [Example 172, 1-(cyclopropanecarbonyl)-4-[4-{{(1R)-1-[3-(1,1-difluoro-2-hydroxy-2-methylpropyl)-2-fluorophenyl]ethyl}amino)-2-methylpyrido[3,4-d]pyrimidin-6-yl]-1,4lambda^5-azaphosphinan-4-one], the IC50 was determined as 4.78 nM. For `CCP(=O)(CC)c1cc2c(N[C@H](C)c3cccc(C(F)(F)F)c3C)nc(C)nc2cn1` [Example 96, 6-(diethylphosphoryl)-2-methyl-N-{(1R)-1-[2-methyl-3-(trifluoromethyl)phenyl]ethyl}pyrido[3,4-d]pyrimidin-4-amine], the IC50 was found to be 50.2 nM.

On to `Cc1nc(N[C@H](C)c2cccc(C(F)(F)F)c2C)c2cc(P3(=O)CCCC3)c(C)nc2n1` [Example 100, 1-[2,7-dimethyl-4-{{(1R)-1-[2-methyl-3-(trifluoromethyl)phenyl]ethyl}amino)pyrido[2,3-d]pyrimidin-6-yl]-1lambda^5-phospholan-1-one], for which the IC50 is 4.89 nM. To `Cc1nc(N[C@H](C)c2cccc(C(F)F)c2F)c2cc(P(C)(=O)C(C)C)ncc2n1` (stereo partly drawn) [Example 114, N-{(1R)-1-[3-(difluoromethyl)-2-fluorophenyl]ethyl}-2-methyl-6-[methyl(propan-2-yl)phosphoryl]pyrido[3,4-d]pyrimidin-4-amine] belongs 66.5 nM; to `[2H]C([2H])(O)C(F)(F)c1cccc([C@@H](C)Nc2nc(C)nc3cnc(P4(=O)CCCC4)cc23)c1F` [Example 61, 1-(4-{[(1R)-1-{3-[1,1-difluoro-2-hydroxy(^2H2)ethyl]-2-fluorophenyl}ethyl]amino}-2-methylpyrido[3,4-d]pyrimidin-6-yl)-1lambda^5-phospholan-1-one], 9.82 nM; to `Cc1nc(N[C@H](C)c2cccc(C(F)(F)C(C)O)c2F)c2cc(P(C)(=O)C(C)C)ncc2n1` (single isomer, unassigned) [Example 81, (2R*)-1,1-difluoro-1-{2-fluoro-3-[(1R)-1-({2-methyl-6-[methyl(propan-2-yl)phosphoryl]pyrido[3,4-d]pyrimidin-4-yl}amino)ethyl]phenyl}propan-2-ol], 10.2 nM.
